Data published in paper PMC11109052, “Metabolism characterization and toxicity of N-hydap, a marine candidate drug for lung cancer therapy by LC–MS method” (Natural Products and Bioprospecting, 2024).

Columns and labels:
HLMs = experiment: Kinetics of N-hydap glucuronidation in HLMs; format: in vitro ADME, human; settings: HLM
Description: Various microsomes including HLMs, HKMs, HIMs, RLMs, RKMs, MLMs and MKMs were involved in CYP and UGT reactions of N-hydap. A typical CYP incubation mixture included 0.5 mg/mL microsomes protein, 3.3 mM glucose-6-phosphate, 3.3 mM MgCl2, 0.4 U/mL glucose-6-phosphate dehydrogenase, and N-hydap (1, 2.5, or 10 μM) in the 50 mM potassium phosphate buffer (KPI, pH 7.4). The incubation mixture was preincubated at 37 °C for 5 min, and the reaction was started by adding NADP to form a NADPH-regenerating system. Simultaneously, the classic UGT reaction system consisted of 50 mM KPI, 5 mM MgCl2, 0.5 mg/mL microsomes, 0.125 mg/mL alamethicin, and 5.25 mg/mL saccharolactone. The reaction was initiated after supplying UDPGA. The CYP and UGT mixtures were incubated at 37 °C in a shaking water bath (80 rpm) for 1.5 h to enhance metabolite formation. To terminate the reaction, an ice-cold solution of Tes (50 ng/mL, dissolved in methanol and used as an internal standard) was added to half of the mixture volume. […]
(§1) The substrate concentrations used for HLMs were 0.05, 0.5, 2, 2.5, 5, 10, 25, 50, and 100 μM. […] The rates of N-hydap-G by enzymes were expressed as nmol/mg/min, representing the amount of metabolites formed per minute per milligram of protein. Kinetic parameters were determined by analyzing the Eadie–Hofstee plots. […]

MLMs = experiment: Kinetics of N-hydap glucuronidation in MLMs; format: in vitro ADME, mouse; settings: MLM
Description: In this study, the rats were executed by drawing blood from the abdominal aorta and mice were sacrificed with cervical dislocation before the liver and kidneys were excised. The liver and kidneys were removed, and washed with chilled cleansing solution (contains 8 mM KH2PO4, 5.6 mM EDTA·K2·2H2O, 1 mM DTT and 229.6 μM PMSF), homogenized in a tissue homogenate buffer with a pH of 7.4, (consisting of […], 8 mM K2HPO4, 250 mM sucrose, 1 mM EDTA·K2·2H2O and 229.6 μM PMSF). Subsequently, the homogenate was centrifuged at 10,400 rpm at 4 °C for 15 min, and the supernatant was then centrifuged at 35,000 rpm at 4 °C for 60 min. A 250 mM sucrose buffer was added to the pellet to reconstitute and the resuspension was stored at − 80 °C until use. Microsome protein concentrations were measured by Omni-Easy™ Instant BCA Protein Assay Kit.
Various microsomes including HLMs, HKMs, HIMs, RLMs, RKMs, MLMs and MKMs were involved in CYP and UGT reactions of N-hydap. […]
as §1

Ugt1a6a = experiment: Real-time PCR mRNA level after 7 days gavage: Ugt1a6a (human homolog UGT1A6); format: in vivo, mice; parameters: key to UGT1A6 mNA expression: ↑: up-regulation; ↓: down-regulation; –: no change
Description: Mice were randomly divided into four groups, with eight animals in each group. The mice received oral pretreatment with N-hydap for 7 days at doses of 2, 5, and 10 mg/kg/day, which were considered as the low dose, medium dose, and high dose, respectively. Correspondingly, the control group received PBS. On the 8th day, the liver and kidneys were removed, and organs from eight mice per group were combined to prepare MLMs and MKMs using the detailed procedures above. Subsequently, we determined the activity of CYP and UGT enzymes by specific substrate metabolized with MLMs (0.5 mg/mL) and MKMs (0.2 mg/mL) in vitro. Specifically, the following selective substrates were used for the respective enzymes: PH (1 μM) for CYP1A2, DIC (1 μM) for CYP2C9, MP (90 μM) for CYP2C19, DM (1 μM) for CYP2D6, CZX (10 μM) for CYP2E1, Tes (1 μM) for CYP3A4, SN38 (1 μM) for UGT1A1, CACD (100 μM) for UGT1A3, Sero (20 μM) for UGT1A6, and Prop (1 μM) for UGT1A9. All substrates were dissolved in methanol or DMSO. The incubation procedure was carried out as mentioned above, and the reaction was terminated with VER (20 ng/mL) in ESI+ mode and CLP (200 ng/mL) in ESI− mode. In the ex vivo experiments, the activity of enzymes was measured by quantifying the production of various metabolites (nM/mg protein/min). The metabolites and their corresponding enzymes are as follows: APAP from PH, 4-OH-DIC from DIC, 4-OH-MP from MP, DXO from DM, 6-OH-CZX from CZX, 6-OH-Tes from Tes, SN38-G from SN38, CACD-G from CACD, Sero-G from Sero, Prop-G from Prop. The measurements were performed using multiple reaction monitoring (MRM) transitions, which are specific mass spectrometry transitions used for quantification. […]
Total RNA from liver and kidney samples taken after 7 days of N-hydap gavage was extracted using the Animal Total RNA Isolation Kit (Foregene, Chengdu, Sichuan, China) following the manufacturer’s instructions. The concentrations of total RNA were determined by a nucleic acid concentration tester at 260/280 nm. […]

## CC1CCC2C(C=CC(C)C2C(=O)c2c(O)c(C3(O)CCC(O)C4OC43)cn(O)c2=O)C1 (centres unmarked) [N-hydap, N-Hydroxyapiosporamide]
HLMs
  Km: 116 µM
MLMs
  Km: 263 µM
Ugt1a6a; Kidney
  UGT1A6 mNA expression: ↑
Ugt1a6a; Liver
  UGT1A6 mNA expression: ↑
Ugt1a6a; mice, 2, 5, 10 mg/kg p.o. 7 days, liver and kidneys
  mRNA levels of Ugt1a6a: modest increase
